Test results taken from patent publication EP3233102B1, “USE OF AN ANTIMICROBIAL PEPTIDE TO INDUCE CELL DEATH IN BREAST CANCER” (Bolkent, Sehnaz, priority 2014, dated 2024).
Where a SMILES comes first, the peptide text is derived from it. Bridges are numbered along the chain shown (N, C = ends). Where no end group is shown, it is not given here.

What was measured:
control (normal) cells = assay: Lactate dehydrogenase (LDH) release cytotoxicity assay, control group; format: cell-based
From the text: (§1) The lactate dehydrogenase (LDH) release assay was used to measure cytotoxicity. Lactate dehydrogenase (LDH) is a stable cytoplasmic enzyme present in most cells. During damage to or rupture of cell cytoplasmic membranes, LDH is released from cells and into the surrounding cell culture supernatant. Quantitation of LDH in cell culture supernatant was used to measure cellular toxicity levels.
(§2) Both MCF-7 and control (normal) cells were detached from 75 cm^2 flasks with trypsin-EDTA and centrifuged. Cells were resuspended in cell culture media and diluted to a concentration of 50 cells/ µl 100 µl of cell suspension was transferred to each well of a 96-well plate. Three wells of cells were used for each concentration of cyclic dodecapeptide. The asay was performed in triplicates. […] The media of the experiment groups was replaced with media containing 50, 100, or 200 µg/ml of cyclic dodecapeptide. After the cells were incubated with cyclic dodecapeptide for 24 hours, the activity of released lactate dehydrogenase was detected following manufacture prototol. 5 µl of lysis solution (2% Triton-X-100) was added to each well. The plate was incubated at 37 °C for 15 minutes. 100 µ ? of freshly prepared reaction mixture containing catalyst (Diaphoresis NAD^+mixture) and dye solution (iodotetrazolium chloride (INT) and sodium lactate) was added to each well. After incubation in dark at room temperature for 30 minutes, the reaction was stopped by adding 50 µl of stopping solution (IN HCl) to each well. Plates were shaken in an orbital shaker for 10 seconds. Spectrophotometric absorbance was measured at 490 nm test wavelength and 690 nm reference wavelength. The results were determined as % cytotoxicity. The average absorbance value of the negative control group (no cyclic dodecapeptide added) was subtracted from each of the experiment groups. A positive control group for maximum LDH release was used as 100% cytotoxicity. The control and experiment groups were compared relative to the positive control group, and their cytotoxicities were measured by using the formula below: % Cytotoxicity = ([Experiment−NegativeControl])/([PositiveControl−NegativeControl])∗100 [formula]

MCF-7 cells = assay: Lactate dehydrogenase (LDH) release cytotoxicity assay; format: cell-based; details: 24 hours, FIG. 4
From the text: as §1
as §2, with “A positive control group for maximum LDH release was used as 100% cytotoxicity.” left out

MDA-MB 231 cells = assay: as above; format: cell-based; details: 24 hours, FIG. 5
human glioblastoma cells = details: cited from earlier work
emryonic neurons of rats = details: cited from earlier work

Molecule | release of lactate dehydrogenase, % cytotoxicity, control group (control (normal) cells; 50 µg/ml, FIG. 4 (control group to MCF-7)) [%] | release of lactate dehydrogenase, % cytotoxicity, control group (control (normal) cells; 50 µg/ml, FIG. 5 (control group to MDA-MB 231)) [%] | release of lactate dehydrogenase, % cytotoxicity, control group (control (normal) cells; 100 µg/ml, FIG. 4 (control group to MCF-7)) [%] | release of lactate dehydrogenase, % cytotoxicity, control group (control (normal) cells; 100 µg/ml, FIG. 5 (control group to MDA-MB 231)) [%] | release of lactate dehydrogenase, % cytotoxicity, control group (control (normal) cells; 200 µg/ml, FIG. 4 (control group to MCF-7)) [%] | release of lactate dehydrogenase, % cytotoxicity, control group (control (normal) cells; 200 µg/ml, FIG. 5 (control group to MDA-MB 231)) [%] | release of lactate dehydrogenase, % cytotoxicity, MCF-7 group (MCF-7 cells; 50 µg/ml) [%] | release of lactate dehydrogenase, % cytotoxicity, MCF-7 group (MCF-7 cells; 100 µg/ml) [%] | release of lactate dehydrogenase, % cytotoxicity, MCF-7 group (MCF-7 cells; 200 µg/ml) | release of lactate dehydrogenase, % cytotoxicity, MDA-MB 231 group (MDA-MB 231 cells; 50 µg/ml) [%] | release of lactate dehydrogenase, % cytotoxicity, MDA-MB 231 group (MDA-MB 231 cells; 100 µg/ml) [%] | release of lactate dehydrogenase, % cytotoxicity, MDA-MB 231 group (MDA-MB 231 cells; 200 µg/ml) [%] | cytotoxicity (human glioblastoma cells) | cytotoxicity (emryonic neurons of rats)
CC[C@H](C)[C@@H]1NC(=O)[C@H](CCCNC(=N)N)NC(=O)[C@@H](NC(=O)[C@H](CC(C)C)NC(=O)[C@@H](N)CCCNC(=N)N)CSSC[C@@H](C(=O)N[C@@H](CCCNC(=N)N)C(=O)O)NC(=O)[C@H](C(C)C)NC(=O)[C@H](CCCNC(=N)N)NC(=O)[C@H]([C@@H](C)CC)NC(=O)[C@H](C(C)C)NC(=O)[C@H](C(C)C)NC1=O [cyclic dodecapeptide, RLCRIVVIRVCR] (H-RLCRIVVIRVCR-OH; disulfide 3-11) | 12.8±1.9 | 3.9±0.9 | 13.36±1.5 | 4.73±1.7 | 12.07±1.4 | 4.8±1.3 | 20.11±8.3 | 76.22±4.1 | 61.55+4% | 19.1±1.9 | 17.1±2.2 | 33.93±9 |  | 
bactenecin (RLCRIVVIRVCR; disulfide 3-11; UniProt P22226 144-155, looked up) |  |  |  |  |  |  |  |  |  |  |  |  | strongly cytotoxic | strongly cytotoxic
